From ChEMBL document CHEMBL1137284, “Farnesoid X-activated receptor antagonists from a marine sponge Spongia sp” (Bioorg Med Chem Lett, 2006) come the findings set out here.

Assay [1] deals with T1, Bile acid receptor (Homo sapiens, UniProt Q96RI1).
T1 sequence (Q96RI1 whole entry): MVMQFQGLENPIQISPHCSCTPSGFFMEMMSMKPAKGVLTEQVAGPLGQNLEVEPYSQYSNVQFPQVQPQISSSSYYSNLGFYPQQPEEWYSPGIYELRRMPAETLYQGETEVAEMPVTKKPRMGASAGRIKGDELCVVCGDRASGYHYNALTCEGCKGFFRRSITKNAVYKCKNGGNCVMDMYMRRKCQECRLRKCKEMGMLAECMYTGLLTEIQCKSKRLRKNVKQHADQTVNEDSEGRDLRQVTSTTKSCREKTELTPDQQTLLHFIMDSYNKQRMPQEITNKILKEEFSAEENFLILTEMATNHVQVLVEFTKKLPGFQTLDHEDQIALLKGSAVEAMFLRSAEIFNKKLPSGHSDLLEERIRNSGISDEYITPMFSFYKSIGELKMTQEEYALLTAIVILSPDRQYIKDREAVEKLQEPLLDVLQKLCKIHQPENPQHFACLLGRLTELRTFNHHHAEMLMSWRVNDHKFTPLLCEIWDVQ
In words: Antagonist activity against FXR assessed as transactivation of luciferase reporter gene in CV1 cells. Format: functional, cell-based, CV-1. In general terms: A reporter such as luciferase makes a cellular process visible.

A short description of assay [2]: Cytotoxicity against CV1 cells transfected with human FXR by MTT method. To be noted: CV-1. Type of assay: cell-based. For orientation: Tetrazolium dyes change colour on reduction, which living cells bring about.

Structures are written as SMILES.

For orientation: IC50 means the point on the concentration scale where inhibition reaches its midpoint. In the case of `CC(=O)OC[C@@]12CCC3C(C)(C)CCC[C@]3(C)C1C[C@@H](O)[C@@]1(C)C2CC=C2CO[C@@H](O)[C@@H]21` (stereo not given in full), the concentration for half-maximal inhibition (IC50) in assay [1] was 25.3 µM; in assay [2], 29.2 µM.
Taken in the same sequence, the figures for `CO[C@@H]1OCC2=CCC3[C@]4(C)CCC5C(C)(C)CCC[C@]5(C)C4C[C@@H](O)[C@]3(C)[C@H]21` (stereo not given in full) were 24.8 µM and 86.9 µM.
With `CC1(C)CCC[C@@]2(C)C1CC[C@]1(CO)C2C[C@@H](O)[C@@]2(C)C1CC=C1CO[C@@H](O)[C@@H]12` (stereo not given in full), the half-inhibitory concentration (IC50) in assay [1] was 64.5 µM; in assay [2], > 100 µM.
For `CC(=O)OC[C@@]12CCC3C(C)(C)CCC[C@]3(C)C1C[C@@H](OC(C)=O)[C@@]1(C)C2CC=C2CO[C@@H](O)[C@@H]21` (stereo not given in full), in that order: 8.1 µM and 32.7 µM.
As for `CC(=O)O[C@@H]1CC2[C@@]3(C)CCCC(C)(C)C3CC[C@@]2(C)C2CC=C3CO[C@@H](O)[C@@H]3[C@]21C` (stereo not given in full), the IC50 in assay [1] is 81.1 µM; in assay [2] it was 98.5 µM.
